Measured values published in US9187490B2, “Dimeric IAP inhibitors” (TetraLogic Pharmaceuticals Corporation, priority 2005, dated 2015).

Target: T1, XIAP-BIR3 (Homo sapiens, UniProt P98170)
T1 construct: 40 nM of XIAP-BIR3 for 15 min at RT
Assay: XIAP BIR-3 fluorescence polarization binding assay
Settings: for Kd: 5 nM AbuRPF-K(5-Fam)-NH2, 40 nM XIAP-BIR3, 15 min RT, pH 7.5, read-out: KD Range
Experimental: Following incubation, the polarization values (mP) were measured on a Victor^2V using a 485 nm excitation filter and a 520 nm emission filter. IC50 values were determined from the plot using nonlinear least-squares analysis using GraphPad Prism.

T1 sequence (P98170 241-356 limits assumed): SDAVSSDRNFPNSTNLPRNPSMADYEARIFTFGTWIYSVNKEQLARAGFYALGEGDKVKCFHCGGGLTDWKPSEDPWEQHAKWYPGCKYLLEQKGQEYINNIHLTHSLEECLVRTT

Row | Kd [nM] | increase in binding affinity relative to the Smac tetrapeptide (AVPI) (XIAP BIR-3, FIG. 1) | SMILES
1 | < 100 | – | CC(C)[C@H](NC(=O)[C@H](C)N)C(=O)N1CCC[C@H]1Cc1c(/C=C/c2oc3ccccc3c2C[C@@H]2CCCN2C(=O)[C@@H](NC(=O)[C@H](C)N)C(C)C)oc2ccccc12 [Entry 2]
2 | < 100 | – | C[C@H](N)C(=O)N[C@H](C(=O)N1CCC[C@H]1Cc1c(-c2ccc(-c3oc4ccccc4c3C[C@@H]3CCCN3C(=O)[C@@H](NC(=O)[C@H](C)N)C(C)(C)C)cc2)oc2ccccc12)C(C)(C)C [Entry 7]
3 | 100 to 1000 | – | CC[C@H](N)C(=O)N[C@H](C(=O)N1CCC[C@H]1Cc1c(-c2ccc(-c3oc4ccccc4c3C[C@@H]3CCCN3C(=O)[C@@H](NC(=O)[C@@H](N)CC)C(C)(C)C)cc2)oc2ccccc12)C(C)(C)C [Entry 9]
4 | < 100 | – | CN[C@@H](C)C(=O)N[C@H](C(=O)N1CCC[C@H]1Cc1c(-c2ccc(-c3oc4ccccc4c3C[C@@H]3CCCN3C(=O)[C@@H](NC(=O)[C@H](C)NC)C(C)C)cc2)oc2ccccc12)C(C)C [Entry 10]
5 | < 100 | – | CC[C@H](N)C(=O)N[C@H](C(=O)N1CCC[C@H]1Cc1c(-c2ccc(-c3oc4ccccc4c3C[C@@H]3CCCN3C(=O)[C@@H](NC(=O)[C@@H](N)CC)C(C)C)cc2)oc2ccccc12)C(C)C [Entry 11]
6 | < 100 | – | CN[C@@H](C)C(=O)N[C@H](C(=O)N1CCC[C@H]1Cc1c(-c2ccc(-c3oc4ccccc4c3C[C@@H]3CCCN3C(=O)[C@@H](NC(=O)[C@H](C)NC)C3CCCCC3)cc2)oc2ccccc12)C1CCCCC1 [Entry 13]
7 | 100 to 1000 | – | CN[C@@H](C)C(=O)N[C@H](C(=O)N1C[C@H](O)C[C@H]1Cc1c(-c2ccc(-c3[nH]c4ccccc4c3C[C@@H]3C[C@@H](O)CN3C(=O)[C@@H](NC(=O)[C@H](C)NC)C(C)(C)C)cc2)[nH]c2ccccc12)C(C)(C)C [Entry 22]
8 | < 100 | – | CN[C@@H](C)C(=O)N[C@H](C(=O)N1CCC[C@H]1Cc1c(-c2ccc(-c3[nH]c4cc(F)ccc4c3C[C@@H]3CCCN3C(=O)[C@@H](NC(=O)[C@H](C)NC)[C@@H](C)OCc3ccccc3)cc2)[nH]c2cc(F)ccc12)[C@@H](C)O [Entry 26]
9 | < 100 | – | CN[C@@H](C)C(=O)N[C@H](C(=O)N1C[C@@H](O)C[C@H]1Cc1c(-c2ccc(-c3[nH]c4cc(F)ccc4c3C[C@@H]3C[C@H](O)CN3C(=O)[C@@H](NC(=O)[C@H](C)NC)[C@@H](C)O)cc2)[nH]c2cc(F)ccc12)[C@@H](C)O [Entry 28]
10 | < 100 | – | CN[C@@H](C)C(=O)N[C@H](C(=O)N1CCC[C@H]1Cc1c(-c2ccc(-c3[nH]c4cc(F)ccc4c3C[C@@H]3CCCN3C(=O)[C@@H](NC(=O)[C@H](C)NC)[C@@H](C)OCc3ccccc3)cc2)[nH]c2cc(F)ccc12)[C@@H](C)O [Entry 32]
11 | < 100 | – | CN[C@@H](C)C(=O)N[C@H](C(=O)N1CCC[C@H]1Cc1c(-c2ccc(-c3[nH]c4cc(F)ccc4c3C[C@@H]3CCCN3C(=O)[C@@H](NC(=O)[C@H](C)NC)[C@@H](C)OCc3ccccc3)cc2)[nH]c2cc(F)ccc12)[C@@H](C)OCc1ccccc1 [Entry 33]
12 | 100 to 1000 | – | CN[C@@H](C)C(=O)N[C@H](C(=O)N1C[C@H](O)C[C@H]1Cc1c(-c2ccc(-c3[nH]c4ccccc4c3C[C@@H]3C[C@@H](O)CN3C(=O)[C@@H](NC(=O)[C@H](C)NC)C(C)C)cc2)[nH]c2ccccc12)C(C)C [Entry 37]
13 | < 100 | – | CN[C@@H](C)C(=O)N[C@H](C(=O)N1CCC[C@H]1Cc1c(-c2ccc(-c3[nH]c4cc(F)ccc4c3C[C@@H]3CCCN3C(=O)[C@@H](NC(=O)[C@H](C)NC)C3CCCCC3)cc2)[nH]c2cc(F)ccc12)C1CCCCC1 [Entry 38]

Continued, molecule first:

Row | SMILES | Kd [nM] | increase in binding affinity relative to the Smac tetrapeptide (AVPI) (XIAP BIR-3, FIG. 1)
14 | CNC(C)C(=O)NC(C(=O)N1CCCC1Cc1c(-c2ccc(-c3c(CC4CCCN4C(=O)C(NC(=O)C(C)NC)C(C)(C)C)c4ccc(F)cc4n3CCO)cc2)n(CCO)c2cc(F)ccc12)C(C)(C)C (single isomer, unassigned) [Entry 60] | 1000 to 10000 | –
15 | CC(N)C(=O)NC(C(=O)N1CCCC1Cc1c(-c2ccc(-c3oc4ccccc4c3CC3CCCN3C(=O)C(NC(=O)C(C)N)C(C)C)cc2)oc2ccccc12)C(C)C (single isomer, unassigned) [Entry 61] | > 10000 | –
16 | CNC(C)C(=O)NC(C(=O)N1CCCC1Cc1c(-c2ccc(-c3c(CC4CCCN4C(=O)C(NC(=O)C(C)NC)C(C)(C)C)c4ccc(F)cc4n3CCO)cc2)n(CCO)c2cc(F)ccc12)C(C)(C)C (single isomer, unassigned) [Entry 487] | < 100 | –
17 | CC(C)[C@H](NC(=O)[C@H](C)N)C(=O)N1CCC[C@H]1Cc1c(CCc2oc3ccccc3c2C[C@@H]2CCCN2C(=O)[C@@H](NC(=O)[C@H](C)N)C(C)C)oc2ccccc12 [Entry 3] | < 100 | –
18 | CC(C)[C@H](NC(=O)CN)C(=O)N1CCC[C@H]1Cc1c(-c2ccc(-c3oc4ccccc4c3C[C@@H]3CCCN3C(=O)[C@@H](NC(=O)[C@H](C)N)C(C)C)cc2)oc2ccccc12 [Entry 4] | < 100 | –
19 | CN[C@@H](C)C(=O)N[C@H](C(=O)N1CCC[C@H]1Cc1c(-c2ccc(-c3oc4ccccc4c3C[C@@H]3CCCN3C(=O)[C@@H](NC(=O)[C@H](C)NC)C(C)(C)C)cc2)oc2ccccc12)C(C)(C)C [Entry 8] | < 100 | –
20 | C[C@H](N)C(=O)N[C@H](C(=O)N1CCC[C@H]1Cc1c(-c2ccc(-c3oc4ccccc4c3C[C@@H]3CCCN3C(=O)[C@@H](NC(=O)[C@H](C)N)C3CCCCC3)cc2)oc2ccccc12)C1CCCCC1 [Entry 12] | < 100 | –
21 | CC[C@H](N)C(=O)N[C@H](C(=O)N1CCC[C@H]1Cc1c(-c2ccc(-c3oc4ccccc4c3C[C@@H]3CCCN3C(=O)[C@@H](NC(=O)[C@@H](N)CC)C3CCCCC3)cc2)oc2ccccc12)C1CCCCC1 [Entry 14] | 100 to 1000 | –
22 | CN[C@@H](C)C(=O)N[C@H](C(=O)N1CCC[C@H]1Cc1c(-c2ccc(-c3oc4ccccc4c3C[C@@H]3CCCN3C(=O)[C@@H](NC(=O)[C@H](C)NC)[C@@H](C)O)cc2)oc2ccccc12)[C@@H](C)O [Entry 15] | < 100 | –
23 | CN[C@@H](C)C(=O)N[C@H](C(=O)N1CCC[C@H]1Cc1c(-c2ccc(-c3[nH]c4cc(F)ccc4c3C[C@@H]3CCCN3C(=O)[C@@H](NC(=O)[C@H](C)NC)C(C)C)cc2)[nH]c2cc(F)ccc12)C(C)C [Entry 16] | < 100 | –
24 | CC(C)[C@H](NC(=O)[C@H](C)N)C(=O)N1CCC[C@H]1Cc1c(-c2ccc(-c3[nH]c4cc(F)ccc4c3C[C@@H]3CCCN3C(=O)[C@@H](NC(=O)[C@H](C)N)C(C)C)s2)[nH]c2cc(F)ccc12 [Entry 17] | < 100 | 30,000 fold
25 | CN[C@@H](C)C(=O)N[C@H](C(=O)N1CCC[C@H]1Cc1c(-c2ccc(-c3[nH]c4cc(F)ccc4c3C[C@@H]3CCCN3C(=O)[C@@H](NC(=O)[C@H](C)NC)C3CCCCC3)s2)[nH]c2cc(F)ccc12)C1CCCCC1 [Entry 18] | < 100 | –
26 | C[C@H](N)C(=O)N[C@H](C(=O)N1CCC[C@H]1Cc1c(-c2ccc(-c3[nH]c4cc(F)ccc4c3C[C@@H]3CCCN3C(=O)[C@@H](NC(=O)[C@H](C)N)C3CCCCC3)cc2)[nH]c2cc(F)ccc12)C1CCCCC1 [Entry 19] | < 100 | –
27 | CN[C@@H](C)C(=O)N[C@H](C(=O)N1CCC[C@H]1Cc1c(-c2ccc(-c3[nH]c4cc(F)ccc4c3C[C@@H]3CCCN3C(=O)[C@@H](NC(=O)[C@H](C)NC)C3CCCCC3)cc2)[nH]c2cc(F)ccc12)C1CCCCC1 [Entry 20] | < 100 | –
28 | CN[C@@H](C)C(=O)N[C@H](C(=O)N1C[C@H](O)C[C@H]1Cc1c(-c2ccc(-c3[nH]c4ccccc4c3C[C@@H]3C[C@@H](O)CN3C(=O)[C@@H](NC(=O)[C@H](C)NC)C(C)C)cc2)[nH]c2ccccc12)C(C)C [Entry 21] | 100 to 1000 | –
29 | CN[C@@H](C)C(=O)N[C@H](C(=O)N1CCC[C@H]1Cc1c(-c2ccc(-c3[nH]c4ccc(F)cc4c3C[C@@H]3CCCN3C(=O)[C@@H](NC(=O)[C@H](C)NC)C(C)C)cc2)[nH]c2ccc(F)cc12)C(C)C [Entry 23] | < 100 | –
30 | CN[C@@H](C)C(=O)N[C@H](C(=O)N1C[C@@H](O)C[C@H]1Cc1c(-c2ccc(-c3[nH]c4ccccc4c3C[C@@H]3C[C@H](O)CN3C(=O)[C@@H](NC(=O)[C@H](C)NC)C(C)(C)C)cc2)[nH]c2ccccc12)C(C)(C)C [Entry 24] | < 100 | –
31 | CN[C@@H](C)C(=O)N[C@H](C(=O)N1CCC[C@H]1Cc1c(-c2ccc(-c3[nH]c4cc(F)ccc4c3C[C@@H]3CCCN3C(=O)[C@@H](NC(=O)[C@H](C)NC)[C@@H](C)OCc3ccccc3)cc2)[nH]c2cc(F)ccc12)[C@@H](C)OCc1ccccc1 [Entry 25] | < 100 | –
32 | CN[C@@H](C)C(=O)N[C@H](C(=O)N1CCC[C@H]1Cc1c(-c2ccc(-c3[nH]c4cc(F)ccc4c3C[C@@H]3CCCN3C(=O)[C@@H](NC(=O)[C@H](C)NC)[C@@H](C)O)cc2)[nH]c2cc(F)ccc12)[C@@H](C)O [Entry 27] | < 100 | –
33 | CN[C@@H](C)C(=O)N[C@H](C(=O)N1C[C@@H](O)C[C@H]1Cc1c(-c2ccc(-c3[nH]c4cc(F)ccc4c3C[C@@H]3C[C@H](O)CN3C(=O)[C@@H](NC(=O)[C@H](C)NC)C(C)C)cc2)[nH]c2cc(F)ccc12)C(C)C [Entry 29] | < 100 | –
34 | CN[C@@H](C)C(=O)N[C@H](C(=O)N1C[C@@H](O)C[C@H]1Cc1c(-c2ccc(-c3[nH]c4cc(F)ccc4c3C[C@@H]3C[C@H](O)CN3C(=O)[C@@H](NC(=O)[C@H](C)NC)C(C)(C)C)cc2)[nH]c2cc(F)ccc12)C(C)(C)C [Entry 30] | < 100 | –
35 | CN[C@@H](C)C(=O)N[C@H](C(=O)N1C[C@@H](O)C[C@H]1Cc1c(-c2ccc(-c3[nH]c4ccccc4c3C[C@@H]3C[C@H](O)CN3C(=O)[C@@H](NC(=O)[C@H](C)NC)C(C)(C)C)cc2)[nH]c2ccccc12)C(C)(C)C [Entry 34] | < 100 | –
36 | CN[C@@H](C)C(=O)N[C@H](C(=O)N1CCC[C@H]1Cc1c(-c2ccc(-c3[nH]c4ccc(F)cc4c3C[C@@H]3CCCN3C(=O)[C@@H](NC(=O)[C@H](C)NC)C(C)C)cc2)[nH]c2ccc(F)cc12)C(C)C [Entry 35] | < 100 | –
37 | CN[C@@H](C)C(=O)N[C@H](C(=O)N1C[C@H](O)C[C@H]1Cc1c(-c2ccc(-c3[nH]c4ccccc4c3C[C@@H]3C[C@@H](O)CN3C(=O)[C@@H](NC(=O)[C@H](C)NC)C(C)(C)C)cc2)[nH]c2ccccc12)C(C)(C)C [Entry 36] | 100 to 1000 | –
